Laboratory results from ChEMBL document CHEMBL1139192, “Novel bis(indolyl)maleimide pyridinophanes that are potent, selective inhibitors of glycogen synthase kinase-3” (Bioorg Med Chem Lett, 2007).

Experiments:
[1] = molecular target: Protein kinase C eta type (Homo sapiens) (UniProt P24723); assay: Residual activity of human PKCeta at 1 uM relative to control
[2] = molecular target: Tyrosine-protein kinase ABL1 (Homo sapiens) (UniProt P00519); assay: Residual activity of human Abl kinase at 1 uM relative to control
[3] = molecular target: Insulin receptor (Homo sapiens) (UniProt P06213); assay: Residual activity of human IR at 1 uM relative to control
[4] = molecular target: T1, Ephrin type-B receptor 2 (Homo sapiens) (UniProt P29323); assay: Inhibition of human EphB2 at 1 uM relative to control; values are per cent of control
T1 sequence (whole entry): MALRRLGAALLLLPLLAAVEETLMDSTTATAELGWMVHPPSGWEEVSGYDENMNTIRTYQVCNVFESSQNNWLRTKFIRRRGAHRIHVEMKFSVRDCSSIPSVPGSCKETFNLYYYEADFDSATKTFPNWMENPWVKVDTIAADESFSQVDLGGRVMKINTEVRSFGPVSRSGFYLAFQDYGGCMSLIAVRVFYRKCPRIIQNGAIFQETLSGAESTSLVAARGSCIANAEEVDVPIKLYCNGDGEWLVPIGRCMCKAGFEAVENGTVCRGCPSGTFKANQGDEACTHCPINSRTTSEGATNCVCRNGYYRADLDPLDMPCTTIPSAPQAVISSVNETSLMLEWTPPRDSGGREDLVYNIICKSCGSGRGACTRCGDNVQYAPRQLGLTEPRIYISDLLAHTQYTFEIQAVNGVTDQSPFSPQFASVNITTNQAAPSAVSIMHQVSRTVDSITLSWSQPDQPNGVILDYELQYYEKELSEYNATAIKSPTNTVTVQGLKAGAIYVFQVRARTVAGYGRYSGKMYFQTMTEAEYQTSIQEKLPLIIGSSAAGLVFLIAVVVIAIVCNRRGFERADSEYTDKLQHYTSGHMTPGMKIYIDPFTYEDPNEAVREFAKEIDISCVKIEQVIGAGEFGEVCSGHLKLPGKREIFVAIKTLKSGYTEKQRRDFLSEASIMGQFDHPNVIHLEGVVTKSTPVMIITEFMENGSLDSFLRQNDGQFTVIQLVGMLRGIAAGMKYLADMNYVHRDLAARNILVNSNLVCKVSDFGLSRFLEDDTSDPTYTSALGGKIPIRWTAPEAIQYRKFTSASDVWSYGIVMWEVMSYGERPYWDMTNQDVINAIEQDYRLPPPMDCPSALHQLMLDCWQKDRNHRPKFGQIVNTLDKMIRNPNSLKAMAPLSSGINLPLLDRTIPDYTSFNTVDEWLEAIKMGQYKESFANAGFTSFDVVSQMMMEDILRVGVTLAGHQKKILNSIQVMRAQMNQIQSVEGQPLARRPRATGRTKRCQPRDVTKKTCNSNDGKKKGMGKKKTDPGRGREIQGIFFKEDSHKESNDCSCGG

[5] = molecular target: T2, Serine/threonine-protein kinase Sgk1 (Homo sapiens) (UniProt O00141); assay: Inhibition of human SGK at 1 uM relative to control; values are per cent of control
T2 sequence (whole entry): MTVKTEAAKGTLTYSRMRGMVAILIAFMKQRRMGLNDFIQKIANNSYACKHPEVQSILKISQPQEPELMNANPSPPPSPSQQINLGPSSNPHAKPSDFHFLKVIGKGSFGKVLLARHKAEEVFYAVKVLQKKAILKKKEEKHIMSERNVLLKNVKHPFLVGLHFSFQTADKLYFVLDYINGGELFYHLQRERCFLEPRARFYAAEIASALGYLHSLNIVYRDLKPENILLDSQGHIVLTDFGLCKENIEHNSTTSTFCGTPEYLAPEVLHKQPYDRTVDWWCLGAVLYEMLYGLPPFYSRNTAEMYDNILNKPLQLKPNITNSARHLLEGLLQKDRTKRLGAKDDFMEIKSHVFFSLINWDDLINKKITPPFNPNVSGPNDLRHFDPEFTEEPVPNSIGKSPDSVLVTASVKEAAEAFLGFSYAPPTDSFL

[6] = molecular target: Protein kinase C gamma type (Homo sapiens) (UniProt P05129); assay: Residual activity of human PKCgamma at 1 uM relative to control
[7] = molecular target: Platelet-derived growth factor receptor beta (Homo sapiens) (UniProt P09619); assay: Inhibition of human PDGFRbeta at 1 uM relative to control; values are per cent of control
[8] = molecular target: Mitogen-activated protein kinase 14 (Homo sapiens) (UniProt Q16539); assay: Inhibition of human SAPK2a at 1 uM relative to control; values are per cent of control
[9] = molecular target: Protein kinase C delta type (Homo sapiens) (UniProt Q05655); assay: Inhibition of human PKCdelta at 1 uM relative to control; values are per cent of control
[10] = molecular target: Protein kinase C theta type (Homo sapiens, UniProt Q04759); assay: Inhibition of human PKCtheta
[11] = molecular target: Tyrosine-protein kinase BTK (Homo sapiens) (UniProt Q06187); assay: Inhibition of human BTK at 1 uM relative to control; values are per cent of control
[12] = molecular target: Tyrosine-protein kinase Blk (Mus musculus) (UniProt P16277); assay: Inhibition of mouse Blk at 1 uM relative to control; values are per cent of control
[13] = molecular target: RAF proto-oncogene serine/threonine-protein kinase (Homo sapiens) (UniProt P04049); assay: Residual activity of humna c-RAF at 1 uM relative to control
[14] = molecular target: Casein kinase I isoform delta (Homo sapiens) (UniProt P48730); assay: Inhibition of CK1delta at 1 uM relative to control; values are per cent of control
[15] = molecular target: T3, Dual specificity mitogen-activated protein kinase kinase 6 (Homo sapiens) (UniProt P52564); assay: Inhibition of human MKK6 at 1 uM relative to control; values are per cent of control
T3 sequence (whole entry): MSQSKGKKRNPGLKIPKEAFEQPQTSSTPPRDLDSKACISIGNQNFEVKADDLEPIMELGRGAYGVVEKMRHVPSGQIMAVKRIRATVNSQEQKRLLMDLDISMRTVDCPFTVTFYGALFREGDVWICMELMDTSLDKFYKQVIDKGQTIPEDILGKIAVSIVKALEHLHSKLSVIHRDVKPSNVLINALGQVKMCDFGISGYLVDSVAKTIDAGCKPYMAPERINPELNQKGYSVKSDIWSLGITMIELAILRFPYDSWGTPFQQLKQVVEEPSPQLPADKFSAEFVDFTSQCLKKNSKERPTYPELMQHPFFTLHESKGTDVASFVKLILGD

[16] = species: Homo sapiens; assay: Selectivity for human recombinant GSK3-beta over human recombinant PKCbeta2

Chain of Tyrosine-protein kinase BTK (Homo sapiens) (Q06187 whole entry): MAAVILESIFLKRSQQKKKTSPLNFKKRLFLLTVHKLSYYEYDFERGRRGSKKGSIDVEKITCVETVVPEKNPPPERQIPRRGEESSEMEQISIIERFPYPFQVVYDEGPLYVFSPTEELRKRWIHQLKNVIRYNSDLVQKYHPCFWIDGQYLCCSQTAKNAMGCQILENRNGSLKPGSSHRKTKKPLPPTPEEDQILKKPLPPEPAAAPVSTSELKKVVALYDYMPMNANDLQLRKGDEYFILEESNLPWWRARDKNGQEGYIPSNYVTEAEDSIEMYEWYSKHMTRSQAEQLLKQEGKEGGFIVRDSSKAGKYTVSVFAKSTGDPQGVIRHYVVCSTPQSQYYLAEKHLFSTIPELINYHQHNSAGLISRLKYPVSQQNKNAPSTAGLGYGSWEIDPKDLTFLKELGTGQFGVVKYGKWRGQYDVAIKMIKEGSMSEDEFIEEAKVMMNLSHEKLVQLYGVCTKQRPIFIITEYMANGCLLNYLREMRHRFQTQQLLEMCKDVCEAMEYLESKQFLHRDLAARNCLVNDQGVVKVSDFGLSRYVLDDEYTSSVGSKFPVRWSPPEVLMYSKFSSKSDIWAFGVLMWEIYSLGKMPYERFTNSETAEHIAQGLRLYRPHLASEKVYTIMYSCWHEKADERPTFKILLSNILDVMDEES
Chain of Platelet-derived growth factor receptor beta (Homo sapiens) (P09619 whole entry): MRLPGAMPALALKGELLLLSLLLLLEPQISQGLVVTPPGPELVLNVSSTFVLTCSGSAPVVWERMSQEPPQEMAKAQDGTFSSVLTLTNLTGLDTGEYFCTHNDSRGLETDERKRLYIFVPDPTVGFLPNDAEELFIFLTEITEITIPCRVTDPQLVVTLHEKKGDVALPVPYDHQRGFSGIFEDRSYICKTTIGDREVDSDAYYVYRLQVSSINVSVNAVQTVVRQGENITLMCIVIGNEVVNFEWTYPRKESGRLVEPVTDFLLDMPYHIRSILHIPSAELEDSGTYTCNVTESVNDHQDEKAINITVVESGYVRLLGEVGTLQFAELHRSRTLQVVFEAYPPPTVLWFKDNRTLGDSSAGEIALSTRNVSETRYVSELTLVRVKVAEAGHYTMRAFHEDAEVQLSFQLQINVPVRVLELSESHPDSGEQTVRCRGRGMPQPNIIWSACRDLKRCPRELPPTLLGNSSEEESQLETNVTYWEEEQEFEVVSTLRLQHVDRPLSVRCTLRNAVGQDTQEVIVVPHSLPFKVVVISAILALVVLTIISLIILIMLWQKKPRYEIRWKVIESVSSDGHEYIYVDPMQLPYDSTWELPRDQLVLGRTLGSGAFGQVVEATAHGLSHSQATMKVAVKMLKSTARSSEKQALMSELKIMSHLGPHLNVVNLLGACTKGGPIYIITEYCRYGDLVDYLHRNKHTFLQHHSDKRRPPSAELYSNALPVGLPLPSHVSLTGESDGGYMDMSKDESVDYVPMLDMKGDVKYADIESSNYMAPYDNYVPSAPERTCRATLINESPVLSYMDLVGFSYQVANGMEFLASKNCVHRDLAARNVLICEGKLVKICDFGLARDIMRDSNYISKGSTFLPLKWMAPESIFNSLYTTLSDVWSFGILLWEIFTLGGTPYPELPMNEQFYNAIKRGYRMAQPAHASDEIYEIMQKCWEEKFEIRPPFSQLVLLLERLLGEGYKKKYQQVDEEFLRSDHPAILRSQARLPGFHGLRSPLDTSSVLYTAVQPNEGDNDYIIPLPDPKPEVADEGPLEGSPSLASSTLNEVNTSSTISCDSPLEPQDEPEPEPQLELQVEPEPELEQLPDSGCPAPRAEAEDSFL
Chain of Tyrosine-protein kinase ABL1 (Homo sapiens) (P00519 whole entry): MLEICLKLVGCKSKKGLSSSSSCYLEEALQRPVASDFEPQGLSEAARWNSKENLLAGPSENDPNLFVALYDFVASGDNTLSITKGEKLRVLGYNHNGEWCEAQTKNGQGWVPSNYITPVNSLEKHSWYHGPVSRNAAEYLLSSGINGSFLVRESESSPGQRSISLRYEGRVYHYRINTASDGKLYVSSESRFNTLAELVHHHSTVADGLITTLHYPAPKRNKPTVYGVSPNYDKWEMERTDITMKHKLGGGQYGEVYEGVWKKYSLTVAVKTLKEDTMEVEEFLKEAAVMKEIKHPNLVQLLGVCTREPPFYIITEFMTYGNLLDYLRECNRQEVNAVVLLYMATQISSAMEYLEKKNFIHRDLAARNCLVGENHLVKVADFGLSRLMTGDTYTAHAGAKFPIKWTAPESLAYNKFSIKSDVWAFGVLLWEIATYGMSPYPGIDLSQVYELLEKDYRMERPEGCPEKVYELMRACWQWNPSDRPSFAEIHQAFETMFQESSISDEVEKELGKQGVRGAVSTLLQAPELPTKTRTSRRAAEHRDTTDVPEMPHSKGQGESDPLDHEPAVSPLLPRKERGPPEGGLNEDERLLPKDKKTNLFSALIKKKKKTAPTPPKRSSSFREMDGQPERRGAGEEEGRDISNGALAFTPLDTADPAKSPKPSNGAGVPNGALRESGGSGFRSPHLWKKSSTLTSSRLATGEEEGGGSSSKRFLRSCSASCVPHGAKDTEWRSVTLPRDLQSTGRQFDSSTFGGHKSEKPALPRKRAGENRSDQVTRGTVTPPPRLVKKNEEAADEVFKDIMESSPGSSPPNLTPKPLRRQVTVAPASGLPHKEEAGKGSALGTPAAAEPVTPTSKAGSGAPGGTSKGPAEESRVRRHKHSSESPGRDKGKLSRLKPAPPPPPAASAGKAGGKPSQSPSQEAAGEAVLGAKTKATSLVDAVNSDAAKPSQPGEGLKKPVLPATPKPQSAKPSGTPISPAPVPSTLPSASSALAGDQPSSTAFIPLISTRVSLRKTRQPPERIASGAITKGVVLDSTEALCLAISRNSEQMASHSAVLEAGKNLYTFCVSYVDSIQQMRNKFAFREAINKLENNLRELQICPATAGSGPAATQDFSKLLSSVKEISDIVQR
Chain of RAF proto-oncogene serine/threonine-protein kinase (Homo sapiens) (P04049 whole entry, canonical isoform): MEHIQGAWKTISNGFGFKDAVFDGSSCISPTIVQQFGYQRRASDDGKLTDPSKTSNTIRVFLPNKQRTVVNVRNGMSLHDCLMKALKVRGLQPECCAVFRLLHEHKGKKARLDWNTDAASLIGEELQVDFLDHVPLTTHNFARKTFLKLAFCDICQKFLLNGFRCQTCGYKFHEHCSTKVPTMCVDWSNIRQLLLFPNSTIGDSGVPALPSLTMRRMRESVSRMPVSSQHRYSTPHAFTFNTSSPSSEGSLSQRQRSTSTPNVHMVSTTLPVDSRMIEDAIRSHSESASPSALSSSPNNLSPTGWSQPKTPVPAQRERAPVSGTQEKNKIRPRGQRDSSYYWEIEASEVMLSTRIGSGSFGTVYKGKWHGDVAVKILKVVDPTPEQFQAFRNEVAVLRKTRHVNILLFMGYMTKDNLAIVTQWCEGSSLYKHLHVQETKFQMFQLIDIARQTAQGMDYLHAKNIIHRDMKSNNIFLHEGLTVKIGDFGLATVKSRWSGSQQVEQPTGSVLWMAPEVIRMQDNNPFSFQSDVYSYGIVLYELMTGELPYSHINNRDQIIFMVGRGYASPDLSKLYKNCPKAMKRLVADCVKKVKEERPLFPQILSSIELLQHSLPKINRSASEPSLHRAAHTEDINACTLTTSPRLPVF
Chain of Mitogen-activated protein kinase 14 (Homo sapiens) (Q16539 whole entry): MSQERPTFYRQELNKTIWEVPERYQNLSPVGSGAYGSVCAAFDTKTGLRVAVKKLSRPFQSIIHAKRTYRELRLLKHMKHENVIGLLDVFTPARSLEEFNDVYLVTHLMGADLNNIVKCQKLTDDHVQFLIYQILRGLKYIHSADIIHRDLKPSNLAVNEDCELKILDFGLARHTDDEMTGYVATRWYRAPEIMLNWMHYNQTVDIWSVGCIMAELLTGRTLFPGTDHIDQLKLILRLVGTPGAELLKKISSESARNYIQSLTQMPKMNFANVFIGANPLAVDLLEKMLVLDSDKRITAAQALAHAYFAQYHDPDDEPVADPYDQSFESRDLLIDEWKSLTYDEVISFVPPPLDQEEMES
Chain of Protein kinase C eta type (Homo sapiens) (P24723 whole entry): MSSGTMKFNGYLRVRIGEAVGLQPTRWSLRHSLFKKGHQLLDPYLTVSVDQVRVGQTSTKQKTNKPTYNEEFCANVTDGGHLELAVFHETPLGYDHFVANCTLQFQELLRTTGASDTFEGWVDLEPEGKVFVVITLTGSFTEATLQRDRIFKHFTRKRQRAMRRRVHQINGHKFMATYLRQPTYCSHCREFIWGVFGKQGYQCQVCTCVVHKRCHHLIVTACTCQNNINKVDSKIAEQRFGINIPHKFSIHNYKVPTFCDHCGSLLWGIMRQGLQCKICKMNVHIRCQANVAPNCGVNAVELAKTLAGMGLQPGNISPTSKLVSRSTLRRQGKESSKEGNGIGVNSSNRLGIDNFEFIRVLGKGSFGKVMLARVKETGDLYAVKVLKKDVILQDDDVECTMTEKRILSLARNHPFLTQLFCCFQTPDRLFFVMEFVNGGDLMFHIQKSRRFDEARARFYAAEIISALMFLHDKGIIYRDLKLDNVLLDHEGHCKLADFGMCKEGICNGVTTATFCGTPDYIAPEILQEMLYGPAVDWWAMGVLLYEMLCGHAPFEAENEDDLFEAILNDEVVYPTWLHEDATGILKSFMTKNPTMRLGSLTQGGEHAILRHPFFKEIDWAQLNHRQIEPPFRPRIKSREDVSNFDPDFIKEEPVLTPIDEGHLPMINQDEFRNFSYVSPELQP
Chain of Casein kinase I isoform delta (Homo sapiens) (P48730 whole entry, looked up, canonical isoform): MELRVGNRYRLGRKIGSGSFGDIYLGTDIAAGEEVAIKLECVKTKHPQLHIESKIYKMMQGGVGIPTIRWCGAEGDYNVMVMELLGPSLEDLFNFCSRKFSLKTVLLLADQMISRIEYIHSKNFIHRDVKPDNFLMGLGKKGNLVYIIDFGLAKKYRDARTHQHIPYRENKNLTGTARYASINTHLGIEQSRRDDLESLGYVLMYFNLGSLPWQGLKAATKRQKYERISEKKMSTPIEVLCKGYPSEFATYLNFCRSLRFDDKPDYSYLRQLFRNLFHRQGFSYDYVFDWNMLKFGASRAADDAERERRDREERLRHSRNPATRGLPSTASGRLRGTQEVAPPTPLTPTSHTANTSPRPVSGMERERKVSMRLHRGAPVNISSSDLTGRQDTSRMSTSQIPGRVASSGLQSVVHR

| residual activity [1] | residual activity [2] | residual activity [3] | residual activity [4] | residual activity [5] | residual activity [6] | residual activity [7] | residual activity [8] | residual activity [9] | IC50 [10] | residual activity [11] | residual activity [12] | residual activity [13] | residual activity [14] | residual activity [15] | Ratio IC50 [16] | Structure (SMILES) |
| --- | --- | --- | --- | --- | --- | --- | --- | --- | --- | --- | --- | --- | --- | --- | --- | --- |
| 104% | 105% | 91% | 125% | 93% | 91% | 147% | 108% | 73% | 0.098 µM | 105% | 109% | 103% | 107% | 102% | 460 | CN(C)c1nc2ccc1CCCn1cc(c3ccccc31)C1=C(C(=O)NC1=O)c1cn(c3ccccc13)CC2 |
| 117% | 98% | 102% | 114% | 105% | 107% | 101% | 92% | 100% |  | 106% | 70% | 87% | 111% | 86% |  | CN(C)c1cc2cc(n1)CCCn1cc(c3ccccc31)C1=C(C(=O)NC1=O)c1cn(c3ccccc13)CCC2 |
| 121% | 107% | 110% | 110% | 109% | 99% | 103% | 92% | 104% |  | 106% | 74% | 92% | 112% | 91% |  | O=C1NC(=O)C2=C1c1cn(c3ccccc13)CCCc1cc(nc(N3CCCC3)c1)CCCn1cc2c2ccccc21 |
| 90% | 108% | 87% | 114% | 93% | 102% | 105% | 93% | 91% |  | 104% | 91% | 85% | 109% | 85% |  | O=C1NC(=O)C2=C1c1cn(c3ccccc13)CCCc1ccc(c(N3CCCC3)n1)CCCn1cc2c2ccccc21 |
